Values quoted from earlier work as cited in US20250082708A1, “HERBAL COMPOSITION FOR USE IN THE TREATMENT OR PREVENTION OF POSTPARTUM DEPRESSION” (CRISTALFARMA S.R.L., priority 2022, published 2025).

Test system: women with postpartum depression
Settings: 8 weeks treatment; Amini et al.

Substance: vitamin D
- reduction of EPDS questionnaire score with respect to baseline, versus placebo control group: greater reduction
